According to ChEMBL document CHEMBL1201862, “PubChem BioAssay data set” (2004):
Calls of active or inactive are those of the source.

Key:
HEK293 = assay: inhibitors of LMP1-driven NF-kB reporter, dose response, cell-based, HEK293, luciferase, cherry-pick (AID 588343); type: functional; settings: Homo sapiens
[1] = target: Latent membrane protein 1 (Human herpesvirus 4 (strain B95-8), UniProt P03230); assay: TES1-eGFP NF-kB reporter inhibition versus Tet-On dsRED, dose response, selectivity assay for LMP1 NF-kB inhibitor project, imaging, HEK293T, dual-color eGFP/dsRED, cherry-picks (AID 588398); type: functional, cell-based
[2] = target: T1, Oxysterols receptor LXR-beta (Homo sapiens, UniProt P55055); type: functional, cell-based;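 note: agonist activity at LXR measured by a cell-based luminescence readout across a dose range, run as a counterscreen for daf-12 agonists; HEK293 cells with Gal4-LXR fusion and GAL4-driven luciferase reporter; potency for activation of Gal4-LXR reporter so compounds are agonists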
T1 sequence (P55055 whole entry): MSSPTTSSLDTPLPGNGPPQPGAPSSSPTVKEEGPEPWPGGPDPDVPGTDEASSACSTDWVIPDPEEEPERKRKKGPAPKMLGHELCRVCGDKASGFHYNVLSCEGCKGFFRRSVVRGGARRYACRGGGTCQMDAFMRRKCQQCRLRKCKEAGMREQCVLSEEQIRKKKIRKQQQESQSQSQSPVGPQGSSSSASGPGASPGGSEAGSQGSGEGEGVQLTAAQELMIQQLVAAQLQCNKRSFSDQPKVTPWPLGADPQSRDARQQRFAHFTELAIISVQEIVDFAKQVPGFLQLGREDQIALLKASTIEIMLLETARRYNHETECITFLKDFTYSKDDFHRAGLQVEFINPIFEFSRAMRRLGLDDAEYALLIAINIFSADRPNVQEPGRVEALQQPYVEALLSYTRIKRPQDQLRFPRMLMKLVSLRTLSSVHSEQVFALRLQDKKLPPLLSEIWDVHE

[3] = NIH-3T3 fibroblast cytotoxicity, dose response, cytotoxicity control, cell-based, fluorescence, Alamar Blue, secondary assay (AID 2327); type: functional;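 note: NIH-3T3 mouse fibroblasts cultured with fluconazole at 8 µg/mL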
[4] = C. albicans growth with fluconazole, confirmation, fluorescence, retest (AID 2467); type: functional, cell-based
[5] = target: Multidrug resistance protein CDR2 (Candida albicans (strain SC5314 / ATCC MYA-2876) (Yeast), UniProt P78595); assay: CaCDR2 efflux pump inhibitors in yeast, dose response, S. cerevisiae AD1-8u, singleplex, Cherry Pick1 hits (AID 588604); type: functional
[6] = target: T2, DNA repair protein RAD52 homolog (Homo sapiens, UniProt P43351); type: functional, biochemical
T2 sequence (P43351 whole entry): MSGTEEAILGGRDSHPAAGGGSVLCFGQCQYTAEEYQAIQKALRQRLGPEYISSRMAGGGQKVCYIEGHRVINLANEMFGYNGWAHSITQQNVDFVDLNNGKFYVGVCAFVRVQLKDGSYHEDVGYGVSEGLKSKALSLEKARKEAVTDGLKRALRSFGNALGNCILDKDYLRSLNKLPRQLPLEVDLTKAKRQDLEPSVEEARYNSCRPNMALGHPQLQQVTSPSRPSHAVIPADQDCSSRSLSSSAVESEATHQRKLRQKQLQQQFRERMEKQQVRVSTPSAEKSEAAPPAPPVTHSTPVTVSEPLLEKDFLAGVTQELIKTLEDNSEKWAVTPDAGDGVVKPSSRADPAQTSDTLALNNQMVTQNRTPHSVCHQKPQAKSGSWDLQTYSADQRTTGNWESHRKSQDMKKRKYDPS

[7] = target: Death-associated protein kinase 3 (Homo sapiens, UniProt O43293); type: functional;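 note: measured as one member of a kinome-wide profiling panel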
LIM domain kinase 1 = LIM domain kinase 1 (Homo sapiens, UniProt P53667); assay: Navigating the Kinome. Panel member name: LIMK1; type: functional
[8] = target: Serine/threonine-protein kinase Chk1 (Homo sapiens, UniProt O14757); type: functional;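 note: measured as one member of a kinome-wide kinase profiling panel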
[9] = target: G protein-coupled receptor kinase 5 (Homo sapiens, UniProt P34947); assay: Navigating the Kinome. Panel member name: GPRK5; type: functional
[10] = target: Sphingosine 1-phosphate receptor 2 (Homo sapiens, UniProt O95136); assay: Late-stage fluorescence-based dose-response cell-based counterscreen assay to identify agonists of the Sphingosine 1-Phosphate Receptor 3 (S1P3): Sphingosine 1-Phosphate Receptor 2 (S1P2) agonist assay.; type: functional
[11] = target: T3, Sphingosine 1-phosphate receptor 4 (Homo sapiens, UniProt O95977); assay: Late-stage fluorescence-based dose-response cell-based counterscreen assay to identify agonists of the Sphingosine 1-Phosphate Receptor 3 (S1P3): Sphingosine 1-Phosphate Receptor 4 (S1P4) agonist assay.; type: functional
T3 sequence (O95977 whole entry): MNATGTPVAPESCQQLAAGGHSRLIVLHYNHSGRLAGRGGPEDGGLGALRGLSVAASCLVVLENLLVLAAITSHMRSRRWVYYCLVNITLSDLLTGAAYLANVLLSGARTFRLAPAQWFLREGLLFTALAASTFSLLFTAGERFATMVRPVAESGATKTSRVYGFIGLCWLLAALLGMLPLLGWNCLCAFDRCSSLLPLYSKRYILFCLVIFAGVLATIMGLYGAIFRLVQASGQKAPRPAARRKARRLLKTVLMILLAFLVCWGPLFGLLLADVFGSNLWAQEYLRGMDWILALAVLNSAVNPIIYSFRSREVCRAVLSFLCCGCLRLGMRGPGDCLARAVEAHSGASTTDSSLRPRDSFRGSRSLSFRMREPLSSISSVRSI

[12] = target: 26S proteasome non-ATPase regulatory subunit 14 (Homo sapiens, UniProt O00487); assay: inhibition of proteasome subunit RPN11 – biochemical, fluorescence polarization, uHTS hits, confirmation (AID 602368); type: functional
[13] = target: 72 kDa type IV collagenase (Homo sapiens, UniProt P08253); assay: Dose Response validation of uHTS RPN11 inhibitor hits using a MMP-2 Fluorescence assay.; type: functional
Prothrombin = Prothrombin (Bos taurus, UniProt P00735); assay: thrombin inhibition, dose response, biochemical, fluorescence polarization, uHTS hits (AID 602369); type: functional
[14] = Vero cell cytotoxicity, cytotoxicity control for M. tuberculosis inhibitor project, purified and synthesized samples, set 8 (AID 602431); type: functional; settings: Mycobacterium tuberculosis
[15] = THP-1 cell cytotoxicity, cytotoxicity control, set 6 (AID 602433); type: functional; settings: Mycobacterium tuberculosis
[16] = target: T4, Sentrin-specific protease 8 (Homo sapiens, UniProt Q96LD8); assay: SENP8 protease inhibitors, SAR follow-up, biochemical, luminescence (AID 504501); type: functional
T4 sequence (Q96LD8 whole entry): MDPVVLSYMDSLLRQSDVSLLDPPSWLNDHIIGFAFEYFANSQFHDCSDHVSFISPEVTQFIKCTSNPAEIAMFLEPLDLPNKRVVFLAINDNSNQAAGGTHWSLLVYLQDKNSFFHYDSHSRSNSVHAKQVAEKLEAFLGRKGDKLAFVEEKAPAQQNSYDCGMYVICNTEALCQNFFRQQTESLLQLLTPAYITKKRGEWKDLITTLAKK

Caspase-3 = target: T5, Caspase-3 (Homo sapiens, UniProt P42574); assay: SAR Analysis of small molecule inhibitors of Sentrin-specific proteases (SENPs) using a Caspase-3 Selectivity assay. [Related pubchem assays (depositor defined):AID2540, AID2599, AID434973, AID489001]; type: functional
T5 sequence (P42574 whole entry): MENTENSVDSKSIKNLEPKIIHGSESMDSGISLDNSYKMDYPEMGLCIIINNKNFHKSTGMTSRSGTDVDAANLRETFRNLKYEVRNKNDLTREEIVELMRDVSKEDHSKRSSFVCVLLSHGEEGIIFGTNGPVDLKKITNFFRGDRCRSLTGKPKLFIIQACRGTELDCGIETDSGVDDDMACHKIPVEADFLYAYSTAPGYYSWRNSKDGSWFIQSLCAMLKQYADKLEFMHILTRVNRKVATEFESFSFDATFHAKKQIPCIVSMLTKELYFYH

[17] = target: T6, Sentrin-specific protease 6 (Homo sapiens, UniProt Q9GZR1); assay: SAR Analysis of small molecule inhibitors of Sentrin-specific protease 6 (SENP6) using a Luminescent assay. [Related pubchem assays (depositor defined):AID2582, AID2599]; type: functional
T6 sequence (Q9GZR1 whole entry): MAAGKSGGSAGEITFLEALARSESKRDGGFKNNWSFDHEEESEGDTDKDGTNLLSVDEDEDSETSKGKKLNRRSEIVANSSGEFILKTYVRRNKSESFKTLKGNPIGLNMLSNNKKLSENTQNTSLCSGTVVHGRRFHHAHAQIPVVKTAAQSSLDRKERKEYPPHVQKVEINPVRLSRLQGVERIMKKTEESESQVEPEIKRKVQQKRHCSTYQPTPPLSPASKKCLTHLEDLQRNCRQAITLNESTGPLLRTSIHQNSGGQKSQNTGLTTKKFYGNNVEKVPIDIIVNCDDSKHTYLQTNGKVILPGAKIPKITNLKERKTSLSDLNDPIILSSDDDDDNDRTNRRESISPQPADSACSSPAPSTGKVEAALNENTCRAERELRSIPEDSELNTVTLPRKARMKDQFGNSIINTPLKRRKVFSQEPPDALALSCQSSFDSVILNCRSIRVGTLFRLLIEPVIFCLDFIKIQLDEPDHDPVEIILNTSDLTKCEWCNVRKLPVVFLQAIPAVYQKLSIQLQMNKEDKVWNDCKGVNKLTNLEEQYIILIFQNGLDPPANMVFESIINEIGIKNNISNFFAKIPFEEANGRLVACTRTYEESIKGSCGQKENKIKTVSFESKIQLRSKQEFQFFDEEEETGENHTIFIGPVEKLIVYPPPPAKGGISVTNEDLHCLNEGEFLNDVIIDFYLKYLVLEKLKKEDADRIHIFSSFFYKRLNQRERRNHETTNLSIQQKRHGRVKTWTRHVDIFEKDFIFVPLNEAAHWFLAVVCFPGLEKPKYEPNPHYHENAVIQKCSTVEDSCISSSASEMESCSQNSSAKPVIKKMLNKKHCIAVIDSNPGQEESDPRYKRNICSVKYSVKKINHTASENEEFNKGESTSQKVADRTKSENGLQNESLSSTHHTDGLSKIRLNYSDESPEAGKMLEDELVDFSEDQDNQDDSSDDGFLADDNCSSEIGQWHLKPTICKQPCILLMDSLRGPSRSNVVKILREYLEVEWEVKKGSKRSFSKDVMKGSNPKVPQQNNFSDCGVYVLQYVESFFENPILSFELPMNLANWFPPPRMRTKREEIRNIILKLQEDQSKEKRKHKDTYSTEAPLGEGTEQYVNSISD

[18] = target: T7, Sentrin-specific protease 7 (Homo sapiens, UniProt Q9BQF6); assay: SENP7 protease inhibitors, SAR follow-up, biochemical, luminescence (AID 504497); type: functional
T7 sequence (Q9BQF6 whole entry): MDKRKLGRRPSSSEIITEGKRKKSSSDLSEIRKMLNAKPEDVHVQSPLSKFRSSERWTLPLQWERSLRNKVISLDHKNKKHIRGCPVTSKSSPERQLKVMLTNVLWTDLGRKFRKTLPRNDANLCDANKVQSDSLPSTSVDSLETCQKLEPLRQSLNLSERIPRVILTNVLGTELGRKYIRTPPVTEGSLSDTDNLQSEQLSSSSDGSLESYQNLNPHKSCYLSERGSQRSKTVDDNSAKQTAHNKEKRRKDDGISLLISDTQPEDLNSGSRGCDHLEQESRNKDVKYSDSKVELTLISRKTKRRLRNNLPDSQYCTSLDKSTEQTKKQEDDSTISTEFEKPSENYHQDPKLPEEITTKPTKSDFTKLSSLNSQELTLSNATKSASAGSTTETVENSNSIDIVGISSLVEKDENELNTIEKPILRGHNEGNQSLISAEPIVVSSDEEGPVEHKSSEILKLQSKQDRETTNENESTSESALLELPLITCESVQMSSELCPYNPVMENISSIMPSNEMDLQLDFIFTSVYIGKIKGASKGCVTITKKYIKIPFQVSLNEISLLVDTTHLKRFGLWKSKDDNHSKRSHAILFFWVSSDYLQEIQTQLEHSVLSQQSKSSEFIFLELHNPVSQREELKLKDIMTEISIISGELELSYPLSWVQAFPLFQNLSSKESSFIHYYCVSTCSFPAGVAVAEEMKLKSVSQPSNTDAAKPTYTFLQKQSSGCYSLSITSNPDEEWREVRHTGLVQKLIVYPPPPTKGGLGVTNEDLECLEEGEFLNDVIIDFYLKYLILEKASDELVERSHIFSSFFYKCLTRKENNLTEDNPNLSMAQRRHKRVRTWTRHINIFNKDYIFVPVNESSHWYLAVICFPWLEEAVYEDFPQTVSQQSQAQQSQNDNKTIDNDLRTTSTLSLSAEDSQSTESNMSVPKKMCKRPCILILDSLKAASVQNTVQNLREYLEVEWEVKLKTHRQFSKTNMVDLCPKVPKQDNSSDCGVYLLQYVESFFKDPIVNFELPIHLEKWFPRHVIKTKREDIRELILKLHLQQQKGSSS

Chain of LIM domain kinase 1 (P53667 whole entry, the tested form may be a part): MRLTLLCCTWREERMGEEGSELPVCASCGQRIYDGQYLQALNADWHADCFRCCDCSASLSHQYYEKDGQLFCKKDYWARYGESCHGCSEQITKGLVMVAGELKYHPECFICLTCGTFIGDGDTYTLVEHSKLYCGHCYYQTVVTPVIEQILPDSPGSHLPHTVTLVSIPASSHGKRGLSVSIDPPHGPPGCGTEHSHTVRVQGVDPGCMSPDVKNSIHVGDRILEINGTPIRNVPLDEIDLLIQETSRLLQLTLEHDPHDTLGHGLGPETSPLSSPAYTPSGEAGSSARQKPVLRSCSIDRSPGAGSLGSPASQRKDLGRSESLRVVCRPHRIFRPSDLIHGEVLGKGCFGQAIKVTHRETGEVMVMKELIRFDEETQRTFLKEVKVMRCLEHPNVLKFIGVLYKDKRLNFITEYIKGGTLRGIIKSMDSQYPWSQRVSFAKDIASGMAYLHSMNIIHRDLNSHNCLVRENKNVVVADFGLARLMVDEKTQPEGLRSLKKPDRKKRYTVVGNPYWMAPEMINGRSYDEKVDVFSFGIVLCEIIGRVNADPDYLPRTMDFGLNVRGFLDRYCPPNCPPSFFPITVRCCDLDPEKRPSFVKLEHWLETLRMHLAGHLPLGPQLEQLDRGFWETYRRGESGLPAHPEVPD
Chain of Death-associated protein kinase 3 (O43293 whole entry, the tested form may be a part): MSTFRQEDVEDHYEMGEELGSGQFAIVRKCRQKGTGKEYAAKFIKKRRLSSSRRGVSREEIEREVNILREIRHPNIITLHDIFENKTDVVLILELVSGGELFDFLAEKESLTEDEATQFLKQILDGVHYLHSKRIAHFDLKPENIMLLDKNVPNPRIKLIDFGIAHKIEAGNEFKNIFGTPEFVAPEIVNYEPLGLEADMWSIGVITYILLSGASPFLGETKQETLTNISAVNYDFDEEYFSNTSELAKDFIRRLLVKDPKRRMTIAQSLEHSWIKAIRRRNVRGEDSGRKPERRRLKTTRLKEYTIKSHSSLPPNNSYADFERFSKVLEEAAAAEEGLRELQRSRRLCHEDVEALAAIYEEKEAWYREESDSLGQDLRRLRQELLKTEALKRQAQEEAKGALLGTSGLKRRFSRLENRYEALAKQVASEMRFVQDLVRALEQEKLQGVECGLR
Chain of Sphingosine 1-phosphate receptor 2 (O95136 whole entry): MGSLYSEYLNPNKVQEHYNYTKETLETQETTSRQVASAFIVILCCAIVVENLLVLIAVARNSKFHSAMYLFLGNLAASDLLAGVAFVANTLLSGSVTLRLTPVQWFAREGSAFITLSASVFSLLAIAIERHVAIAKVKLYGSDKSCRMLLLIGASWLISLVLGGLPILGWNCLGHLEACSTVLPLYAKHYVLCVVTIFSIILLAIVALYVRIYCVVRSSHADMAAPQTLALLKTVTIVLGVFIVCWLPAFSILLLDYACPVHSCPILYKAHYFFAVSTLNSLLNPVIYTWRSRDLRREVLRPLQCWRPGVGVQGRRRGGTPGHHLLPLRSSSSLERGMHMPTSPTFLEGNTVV
Chain of 72 kDa type IV collagenase (P08253 whole entry): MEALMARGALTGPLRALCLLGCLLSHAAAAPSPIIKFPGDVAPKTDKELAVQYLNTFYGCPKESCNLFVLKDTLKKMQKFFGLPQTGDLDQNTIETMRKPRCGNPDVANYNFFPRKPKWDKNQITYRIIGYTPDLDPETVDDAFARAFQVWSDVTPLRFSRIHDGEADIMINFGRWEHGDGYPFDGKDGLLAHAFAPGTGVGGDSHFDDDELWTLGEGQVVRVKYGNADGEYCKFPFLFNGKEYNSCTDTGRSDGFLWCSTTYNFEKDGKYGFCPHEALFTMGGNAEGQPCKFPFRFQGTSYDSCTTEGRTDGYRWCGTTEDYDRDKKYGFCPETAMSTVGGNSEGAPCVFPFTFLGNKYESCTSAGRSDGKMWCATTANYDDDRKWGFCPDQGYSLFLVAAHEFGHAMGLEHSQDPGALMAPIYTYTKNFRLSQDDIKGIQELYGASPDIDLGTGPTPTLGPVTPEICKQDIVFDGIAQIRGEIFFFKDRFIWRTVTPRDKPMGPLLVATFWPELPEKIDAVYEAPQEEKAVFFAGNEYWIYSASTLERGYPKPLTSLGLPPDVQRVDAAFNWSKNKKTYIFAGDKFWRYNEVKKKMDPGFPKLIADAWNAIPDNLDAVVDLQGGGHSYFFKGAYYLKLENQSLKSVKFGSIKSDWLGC
Chain of Latent membrane protein 1 (P03230 whole entry, the tested form may be a part): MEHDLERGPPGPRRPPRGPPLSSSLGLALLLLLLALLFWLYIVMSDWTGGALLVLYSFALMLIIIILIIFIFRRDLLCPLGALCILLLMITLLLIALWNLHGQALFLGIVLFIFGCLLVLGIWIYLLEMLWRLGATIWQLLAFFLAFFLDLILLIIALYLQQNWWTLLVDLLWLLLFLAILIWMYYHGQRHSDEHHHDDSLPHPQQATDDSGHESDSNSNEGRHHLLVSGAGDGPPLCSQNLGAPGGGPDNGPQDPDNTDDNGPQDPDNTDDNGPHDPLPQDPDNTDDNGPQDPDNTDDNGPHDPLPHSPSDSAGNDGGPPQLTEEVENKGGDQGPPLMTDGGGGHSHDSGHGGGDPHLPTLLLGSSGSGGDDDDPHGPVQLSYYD
Chain of G protein-coupled receptor kinase 5 (P34947 whole entry): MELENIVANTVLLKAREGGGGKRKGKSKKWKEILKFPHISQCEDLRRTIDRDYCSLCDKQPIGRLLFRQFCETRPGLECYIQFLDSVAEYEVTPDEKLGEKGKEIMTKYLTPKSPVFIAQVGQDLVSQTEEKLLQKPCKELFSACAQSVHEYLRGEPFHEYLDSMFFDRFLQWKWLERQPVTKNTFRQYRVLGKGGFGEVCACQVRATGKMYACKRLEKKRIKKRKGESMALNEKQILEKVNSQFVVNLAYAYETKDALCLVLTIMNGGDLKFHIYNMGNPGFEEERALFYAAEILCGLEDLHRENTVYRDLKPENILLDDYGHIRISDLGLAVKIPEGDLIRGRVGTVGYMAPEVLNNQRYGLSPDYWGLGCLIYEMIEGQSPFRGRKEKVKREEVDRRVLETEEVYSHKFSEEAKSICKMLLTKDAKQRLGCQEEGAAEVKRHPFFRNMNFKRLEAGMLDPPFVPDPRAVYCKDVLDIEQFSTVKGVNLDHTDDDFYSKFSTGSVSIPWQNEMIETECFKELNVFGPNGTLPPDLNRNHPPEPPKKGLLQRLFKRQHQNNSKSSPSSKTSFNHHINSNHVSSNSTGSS
Chain of Serine/threonine-protein kinase Chk1 (O14757 whole entry): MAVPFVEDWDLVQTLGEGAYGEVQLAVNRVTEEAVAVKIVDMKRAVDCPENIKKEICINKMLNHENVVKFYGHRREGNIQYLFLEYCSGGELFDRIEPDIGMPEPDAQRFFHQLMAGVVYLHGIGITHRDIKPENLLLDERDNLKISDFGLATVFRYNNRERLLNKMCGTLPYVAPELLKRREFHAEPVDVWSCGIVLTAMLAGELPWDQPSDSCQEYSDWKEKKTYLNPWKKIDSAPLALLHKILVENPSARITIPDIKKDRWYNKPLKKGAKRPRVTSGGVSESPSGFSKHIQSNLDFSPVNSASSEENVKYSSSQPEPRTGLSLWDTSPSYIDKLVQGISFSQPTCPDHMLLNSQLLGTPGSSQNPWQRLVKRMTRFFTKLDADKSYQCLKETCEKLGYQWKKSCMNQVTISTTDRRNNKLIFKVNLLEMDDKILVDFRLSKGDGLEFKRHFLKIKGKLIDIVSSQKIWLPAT
Chain of 26S proteasome non-ATPase regulatory subunit 14 (O00487 whole entry): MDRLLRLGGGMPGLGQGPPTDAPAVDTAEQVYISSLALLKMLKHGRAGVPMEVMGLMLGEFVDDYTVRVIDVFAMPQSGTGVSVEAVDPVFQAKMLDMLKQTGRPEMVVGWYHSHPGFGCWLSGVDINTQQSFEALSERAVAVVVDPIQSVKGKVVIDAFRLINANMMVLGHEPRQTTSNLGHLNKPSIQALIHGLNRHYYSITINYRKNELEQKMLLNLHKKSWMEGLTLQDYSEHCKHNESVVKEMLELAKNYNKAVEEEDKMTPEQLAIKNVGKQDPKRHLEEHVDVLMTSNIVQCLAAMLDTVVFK

Structure (SMILES): CCc1sc(C(=O)Nc2ncccc2O)cc1C
- AC50 (HEK293): 3.71 µM (active)
- AC50 [1]: 29.7 µM (active)
- EC50 [2]: > 67.5 µM (inactive)

Structure (SMILES): Cc1c(CCOC(=O)CC23CC4CC(CC(C)(C4)C2)C3)sc[n+]1Cc1ccc([N+](=O)[O-])cc1
- EC50 [3]: > 150 µM (inactive)
- EC50 [4]: > 38 µM (not active)
- EC50 [5]: 10.9 µM (active)
- AC50 [6]: 15.6 µM (active)

Structure (SMILES): Cc1nn(C)c(C)c2cc([N+](=O)[O-])cc1-2
- Ki [7]: 3.98 µM (active)
- Ki (LIM domain kinase 1): 2 µM (active)
- Ki [8]: 1.58 µM (active)
- Ki [9]: 3.98 µM (active)

Structure (SMILES): O=C(c1cc(-c2ccccc2)on1)N(C1CCCCC1)C1CCCCC1
- EC50 [10]: > 50 µM (inactive)
- EC50 [11]: > 50 µM (inactive)

Structure (SMILES): O=C(N/N=C/c1ccncc1)c1cccc(NC(=O)c2ccc(Cl)cc2)c1
- IC50 [12]: 30.4 µM (active)
- IC50 [13]: > 100 µM (inactive)
- IC50 (Prothrombin): > 100 µM (inactive)

Structure (SMILES): O=C(CSc1nc2c(c(=O)[nH]1)CN(Cc1ccccc1)CC2)NC1CCCCC1
- CC50 [14]: > 100 µM (inconclusive)
- CC50 [15]: > 100 µM (inconclusive)

Structure (SMILES): O=C(Nc1nc2ccc(Cl)cc2s1)c1ccsc1
- IC50 [16]: 0.83 µM (active)
- IC50 (Caspase-3): 2.3 µM (active)
- IC50 [17]: 0.83 µM (active)
- IC50 [18]: 1.1 µM (active)
